For assay [1], the target named is T1, Tyrosine-protein kinase ZAP-70 (Homo sapiens) (UniProt P43403).
T1 sequence (whole entry): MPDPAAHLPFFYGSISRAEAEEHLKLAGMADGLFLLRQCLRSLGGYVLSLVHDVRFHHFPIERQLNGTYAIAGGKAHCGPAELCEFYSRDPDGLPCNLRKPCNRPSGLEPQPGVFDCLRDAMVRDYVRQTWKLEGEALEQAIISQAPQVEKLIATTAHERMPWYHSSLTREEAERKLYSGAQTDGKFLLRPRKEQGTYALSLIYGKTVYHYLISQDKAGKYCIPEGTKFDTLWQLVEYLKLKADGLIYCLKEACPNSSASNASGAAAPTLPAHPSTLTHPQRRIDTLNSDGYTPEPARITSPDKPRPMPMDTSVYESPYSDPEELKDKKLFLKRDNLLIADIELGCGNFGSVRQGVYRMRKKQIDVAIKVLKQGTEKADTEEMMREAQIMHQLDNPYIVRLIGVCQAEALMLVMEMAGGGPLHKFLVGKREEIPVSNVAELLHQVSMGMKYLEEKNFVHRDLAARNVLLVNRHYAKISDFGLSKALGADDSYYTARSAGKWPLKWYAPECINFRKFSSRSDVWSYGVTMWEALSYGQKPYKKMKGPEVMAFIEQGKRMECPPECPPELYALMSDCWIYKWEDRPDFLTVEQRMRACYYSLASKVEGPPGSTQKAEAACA
The assay is described as follows: Residual activity of ZAP70 at 0.1 uM by microplate scintillation counting.

The nature of assay [2]: Residual activity of PKA at 10 uM by microplate scintillation counting.
The target in assay [3] is BDNF/NT-3 growth factors receptor (Homo sapiens) (UniProt Q16620). As to the kind of experiment: Residual activity of TRK-B at 1 uM by microplate scintillation counting.
In assay [4] the target is Serine/threonine-protein kinase PAK 3 (Homo sapiens) (UniProt O75914). The assay is described as follows: Residual activity of PAK3 at 10 uM by microplate scintillation counting.
In assay [5] the target is T2, Mitogen-activated protein kinase 12 (Homo sapiens) (UniProt P53778).
T2 sequence (whole entry): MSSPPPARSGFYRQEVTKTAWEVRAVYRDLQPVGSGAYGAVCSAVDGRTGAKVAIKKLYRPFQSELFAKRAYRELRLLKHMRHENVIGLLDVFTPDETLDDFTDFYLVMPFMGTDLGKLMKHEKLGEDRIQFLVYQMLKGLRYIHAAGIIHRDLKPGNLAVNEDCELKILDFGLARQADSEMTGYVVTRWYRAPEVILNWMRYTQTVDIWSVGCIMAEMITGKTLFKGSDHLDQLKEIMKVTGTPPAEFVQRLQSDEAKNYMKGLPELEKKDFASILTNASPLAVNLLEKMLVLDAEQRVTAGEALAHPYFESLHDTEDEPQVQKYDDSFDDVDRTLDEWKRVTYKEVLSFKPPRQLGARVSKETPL
As to the kind of experiment: Residual activity of p38-gamma at 1 uM by microplate scintillation counting.

The target of assay [6] is Vascular endothelial growth factor receptor 2 (Homo sapiens, UniProt P35968). The assay is described as follows: Inhibition of VEGFR2 by microplate scintillation counting.
In assay [7] the target is CDK6/cyclin D1 (Homo sapiens) (UniProt P24385+Q00534). The assay is described as follows: Residual activity of CDK6/Cyclin D1 at 0.1 uM by microplate scintillation counting. The class given is protein-complex assay.
Assay [8] deals with Insulin receptor-related protein (Homo sapiens) (UniProt P14616). The assay is described as follows: Residual activity of INSRR at 1 uM by microplate scintillation counting.
Assay [9] deals with Serine/threonine-protein kinase MARK2 (Homo sapiens) (UniProt Q7KZI7). The assay is described as follows: Residual activity of MARK2 at 1 uM by microplate scintillation counting.
Assay [10] has as its target Serine/threonine-protein kinase MRCK beta (Homo sapiens) (UniProt Q9Y5S2). As to the kind of experiment: Residual activity of CDC42BPB at 0.1 uM by microplate scintillation counting.
Assay [11] deals with Tyrosine-protein kinase FRK (Homo sapiens) (UniProt P42685). The assay is described as follows: Residual activity of FRK at 10 uM by microplate scintillation counting.
Assay [12] has as its target T3, MAP kinase-activated protein kinase 5 (Homo sapiens) (UniProt Q8IW41).
T3 sequence (whole entry): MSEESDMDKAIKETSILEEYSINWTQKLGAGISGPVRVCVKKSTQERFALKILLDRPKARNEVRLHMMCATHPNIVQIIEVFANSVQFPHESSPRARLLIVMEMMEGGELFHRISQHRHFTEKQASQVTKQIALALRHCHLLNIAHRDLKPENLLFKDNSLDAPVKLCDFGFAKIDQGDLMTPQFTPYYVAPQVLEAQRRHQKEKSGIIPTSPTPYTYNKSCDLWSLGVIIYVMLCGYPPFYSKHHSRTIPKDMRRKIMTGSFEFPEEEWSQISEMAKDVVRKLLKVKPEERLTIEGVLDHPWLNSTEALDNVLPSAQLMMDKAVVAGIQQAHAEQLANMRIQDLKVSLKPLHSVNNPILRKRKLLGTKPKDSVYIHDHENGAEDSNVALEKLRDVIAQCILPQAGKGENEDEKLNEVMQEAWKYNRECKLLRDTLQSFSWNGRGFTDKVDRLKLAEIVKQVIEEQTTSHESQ
The assay is described as follows: Residual activity of MAPKAPK5 at 10 uM by microplate scintillation counting.

In assay [13] the target is Insulin-like growth factor 1 receptor (Homo sapiens) (UniProt P08069). The assay is described as follows: Residual activity of IGF1R at 1 uM by microplate scintillation counting.
For assay [14], the target named is Tyrosine-protein kinase Blk (Homo sapiens) (UniProt P51451). The assay is described as follows: Residual activity of BLK at 10 uM by microplate scintillation counting.
Tyrosine-protein kinase Blk (Homo sapiens), sequence (P51451 2-505 limits assumed): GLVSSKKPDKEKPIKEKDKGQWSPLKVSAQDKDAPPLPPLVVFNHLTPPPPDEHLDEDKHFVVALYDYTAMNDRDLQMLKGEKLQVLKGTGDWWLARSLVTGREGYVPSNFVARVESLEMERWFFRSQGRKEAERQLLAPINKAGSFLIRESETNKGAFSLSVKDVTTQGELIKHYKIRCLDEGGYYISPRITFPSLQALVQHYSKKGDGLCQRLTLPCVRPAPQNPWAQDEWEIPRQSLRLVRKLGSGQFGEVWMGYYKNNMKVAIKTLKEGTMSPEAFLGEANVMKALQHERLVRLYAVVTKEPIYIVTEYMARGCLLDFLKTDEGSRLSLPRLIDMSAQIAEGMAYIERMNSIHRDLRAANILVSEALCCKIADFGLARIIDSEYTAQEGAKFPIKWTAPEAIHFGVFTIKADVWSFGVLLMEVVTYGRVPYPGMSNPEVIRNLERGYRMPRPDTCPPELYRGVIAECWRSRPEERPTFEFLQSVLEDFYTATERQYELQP

Tyrosine-protein kinase FRK (Homo sapiens), sequence (P42685 whole entry): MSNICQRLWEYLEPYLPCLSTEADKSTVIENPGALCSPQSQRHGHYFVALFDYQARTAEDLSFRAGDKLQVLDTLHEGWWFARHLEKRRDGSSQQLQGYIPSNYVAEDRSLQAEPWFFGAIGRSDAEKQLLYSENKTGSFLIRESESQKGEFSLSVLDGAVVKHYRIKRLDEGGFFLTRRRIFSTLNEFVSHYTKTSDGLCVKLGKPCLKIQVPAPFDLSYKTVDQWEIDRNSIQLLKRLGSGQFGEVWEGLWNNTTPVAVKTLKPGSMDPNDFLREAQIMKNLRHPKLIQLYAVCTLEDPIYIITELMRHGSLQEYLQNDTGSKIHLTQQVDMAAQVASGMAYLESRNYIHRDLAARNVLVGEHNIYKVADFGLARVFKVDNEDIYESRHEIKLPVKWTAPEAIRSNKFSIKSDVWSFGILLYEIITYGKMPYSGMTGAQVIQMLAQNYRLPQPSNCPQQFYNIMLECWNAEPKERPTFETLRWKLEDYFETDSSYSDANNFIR
Insulin-like growth factor 1 receptor (Homo sapiens), sequence (P08069 31-736 limits assumed): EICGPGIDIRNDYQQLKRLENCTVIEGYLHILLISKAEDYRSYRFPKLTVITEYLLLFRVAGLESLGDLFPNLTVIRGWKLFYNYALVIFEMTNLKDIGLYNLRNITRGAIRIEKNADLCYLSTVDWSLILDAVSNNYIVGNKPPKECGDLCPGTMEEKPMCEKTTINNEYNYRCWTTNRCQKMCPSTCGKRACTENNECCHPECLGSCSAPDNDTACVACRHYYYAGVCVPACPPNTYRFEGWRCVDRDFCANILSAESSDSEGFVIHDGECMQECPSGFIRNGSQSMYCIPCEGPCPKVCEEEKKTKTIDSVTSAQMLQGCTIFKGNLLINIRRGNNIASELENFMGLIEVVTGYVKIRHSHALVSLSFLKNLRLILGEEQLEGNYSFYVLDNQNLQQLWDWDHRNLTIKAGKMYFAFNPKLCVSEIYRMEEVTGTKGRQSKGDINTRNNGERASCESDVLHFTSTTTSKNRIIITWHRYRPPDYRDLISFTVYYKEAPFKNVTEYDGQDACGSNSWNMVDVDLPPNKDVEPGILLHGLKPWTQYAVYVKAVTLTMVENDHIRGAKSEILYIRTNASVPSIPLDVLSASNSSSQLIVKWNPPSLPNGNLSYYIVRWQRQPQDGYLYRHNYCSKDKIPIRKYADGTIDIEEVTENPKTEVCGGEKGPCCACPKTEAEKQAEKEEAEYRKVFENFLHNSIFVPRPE
Insulin-like growth factor 1 receptor (Homo sapiens), sequence (P08069 741-1367 limits assumed): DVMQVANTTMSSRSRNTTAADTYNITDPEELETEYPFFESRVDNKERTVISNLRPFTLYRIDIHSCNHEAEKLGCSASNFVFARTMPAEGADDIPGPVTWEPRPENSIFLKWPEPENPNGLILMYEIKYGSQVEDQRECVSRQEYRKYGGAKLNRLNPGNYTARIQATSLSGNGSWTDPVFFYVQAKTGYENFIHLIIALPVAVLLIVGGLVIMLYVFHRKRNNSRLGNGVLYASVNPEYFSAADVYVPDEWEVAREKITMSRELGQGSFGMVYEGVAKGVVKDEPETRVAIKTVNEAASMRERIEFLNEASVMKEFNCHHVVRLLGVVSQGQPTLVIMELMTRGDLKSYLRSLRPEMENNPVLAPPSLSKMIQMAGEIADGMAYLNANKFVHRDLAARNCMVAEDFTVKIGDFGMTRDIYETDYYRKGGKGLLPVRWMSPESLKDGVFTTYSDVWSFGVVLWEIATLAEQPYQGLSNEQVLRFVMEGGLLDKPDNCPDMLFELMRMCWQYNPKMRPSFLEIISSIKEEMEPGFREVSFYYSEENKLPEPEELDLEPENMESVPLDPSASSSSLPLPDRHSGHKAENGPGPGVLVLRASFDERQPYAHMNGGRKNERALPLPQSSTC
Vascular endothelial growth factor receptor 2, sequence (P35968 whole entry): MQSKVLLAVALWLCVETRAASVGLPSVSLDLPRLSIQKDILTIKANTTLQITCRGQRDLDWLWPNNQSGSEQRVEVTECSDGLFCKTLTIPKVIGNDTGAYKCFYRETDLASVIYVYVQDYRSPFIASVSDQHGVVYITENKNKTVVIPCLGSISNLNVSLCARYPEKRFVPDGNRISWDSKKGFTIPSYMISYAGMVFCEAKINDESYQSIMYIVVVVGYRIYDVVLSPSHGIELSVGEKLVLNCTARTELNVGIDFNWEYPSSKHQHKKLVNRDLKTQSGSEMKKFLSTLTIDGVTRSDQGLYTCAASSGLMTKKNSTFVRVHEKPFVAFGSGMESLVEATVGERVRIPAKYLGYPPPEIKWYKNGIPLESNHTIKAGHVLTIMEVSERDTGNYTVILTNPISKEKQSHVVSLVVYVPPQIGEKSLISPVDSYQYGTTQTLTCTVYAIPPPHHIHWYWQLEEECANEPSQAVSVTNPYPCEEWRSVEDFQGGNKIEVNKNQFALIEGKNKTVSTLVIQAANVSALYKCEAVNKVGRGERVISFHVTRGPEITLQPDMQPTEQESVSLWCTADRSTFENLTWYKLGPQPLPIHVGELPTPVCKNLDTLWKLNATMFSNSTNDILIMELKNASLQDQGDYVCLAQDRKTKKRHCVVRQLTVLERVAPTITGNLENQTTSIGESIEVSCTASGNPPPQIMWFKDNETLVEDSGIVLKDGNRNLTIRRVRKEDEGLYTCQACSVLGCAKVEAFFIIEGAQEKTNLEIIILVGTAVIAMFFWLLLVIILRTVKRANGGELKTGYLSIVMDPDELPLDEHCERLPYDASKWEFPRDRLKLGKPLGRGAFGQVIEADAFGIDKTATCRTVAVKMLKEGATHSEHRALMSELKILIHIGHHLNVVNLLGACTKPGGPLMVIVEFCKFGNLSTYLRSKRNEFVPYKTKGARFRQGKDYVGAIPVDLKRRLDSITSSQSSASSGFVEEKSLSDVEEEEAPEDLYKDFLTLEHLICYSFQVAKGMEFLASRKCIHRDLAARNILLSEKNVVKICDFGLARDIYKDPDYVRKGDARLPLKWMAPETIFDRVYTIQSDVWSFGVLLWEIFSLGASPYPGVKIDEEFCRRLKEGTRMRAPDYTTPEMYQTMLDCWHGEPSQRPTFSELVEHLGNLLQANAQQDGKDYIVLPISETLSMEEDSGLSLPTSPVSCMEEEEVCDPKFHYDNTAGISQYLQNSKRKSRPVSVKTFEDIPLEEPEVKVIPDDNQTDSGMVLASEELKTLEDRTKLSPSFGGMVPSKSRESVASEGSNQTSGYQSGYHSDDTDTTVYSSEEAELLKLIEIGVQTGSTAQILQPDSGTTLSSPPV
BDNF/NT-3 growth factors receptor (Homo sapiens), sequence (Q16620 32-822 limits assumed): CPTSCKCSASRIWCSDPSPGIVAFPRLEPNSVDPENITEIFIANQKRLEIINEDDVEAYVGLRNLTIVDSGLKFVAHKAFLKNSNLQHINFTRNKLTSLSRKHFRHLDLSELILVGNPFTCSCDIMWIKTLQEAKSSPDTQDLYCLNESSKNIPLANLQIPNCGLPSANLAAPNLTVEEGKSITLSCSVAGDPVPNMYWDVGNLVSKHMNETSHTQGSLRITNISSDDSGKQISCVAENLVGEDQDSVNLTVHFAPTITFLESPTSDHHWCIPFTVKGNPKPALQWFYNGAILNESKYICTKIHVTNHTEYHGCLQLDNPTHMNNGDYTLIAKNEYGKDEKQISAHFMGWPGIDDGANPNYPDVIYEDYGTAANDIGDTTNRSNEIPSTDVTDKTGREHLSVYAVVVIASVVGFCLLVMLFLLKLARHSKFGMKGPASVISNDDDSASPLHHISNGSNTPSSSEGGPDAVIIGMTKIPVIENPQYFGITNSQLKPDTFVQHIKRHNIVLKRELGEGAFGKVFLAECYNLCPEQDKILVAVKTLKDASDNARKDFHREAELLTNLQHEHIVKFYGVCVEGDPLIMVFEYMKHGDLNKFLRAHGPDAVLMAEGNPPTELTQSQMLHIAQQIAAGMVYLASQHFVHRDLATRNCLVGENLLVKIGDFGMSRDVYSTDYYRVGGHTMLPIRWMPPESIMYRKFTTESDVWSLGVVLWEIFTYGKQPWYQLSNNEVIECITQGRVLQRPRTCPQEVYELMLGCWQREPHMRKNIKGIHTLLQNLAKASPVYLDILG
Serine/threonine-protein kinase PAK 3 (Homo sapiens), sequence (O75914 whole entry, looked up): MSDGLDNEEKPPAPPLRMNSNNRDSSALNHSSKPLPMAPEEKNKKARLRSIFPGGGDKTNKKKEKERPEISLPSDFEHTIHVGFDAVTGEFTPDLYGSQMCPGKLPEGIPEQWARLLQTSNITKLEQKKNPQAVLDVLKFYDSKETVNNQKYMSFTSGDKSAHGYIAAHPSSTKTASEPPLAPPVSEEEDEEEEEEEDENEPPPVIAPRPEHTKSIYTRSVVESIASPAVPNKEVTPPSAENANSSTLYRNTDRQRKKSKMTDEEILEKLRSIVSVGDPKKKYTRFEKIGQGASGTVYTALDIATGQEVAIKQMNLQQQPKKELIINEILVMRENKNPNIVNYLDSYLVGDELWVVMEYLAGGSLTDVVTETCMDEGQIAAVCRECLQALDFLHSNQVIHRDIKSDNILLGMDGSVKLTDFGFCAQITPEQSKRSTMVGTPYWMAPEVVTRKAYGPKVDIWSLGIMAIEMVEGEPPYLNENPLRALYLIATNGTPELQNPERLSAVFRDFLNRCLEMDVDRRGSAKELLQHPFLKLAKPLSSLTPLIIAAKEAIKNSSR

Turning to `COc1cc2c(Oc3ccc(-c4nc5ccccc5s4)cc3)ncnc2cc1OCCCN1CCCC1`, the residual activity was 111% in [1]; 78% in assay [2]; 104% in assay [3]; 56% in assay [4]; 112% in assay [5]; 91% in assay [7]. Moreover, the residual activity in assay [8] stood at 96%; in assay [9] it was 86%; in [10], 87%; in [11], 71%; in [12] it was 109%; in assay [13] it was 100%. The residual activity in assay [14] is 33%. The IC50 (commonly the concentration that inhibits the measured activity by half) in assay [6] stood at 350 nM.

Take `COc1cc2c(Oc3ccc(-c4nc5ccccc5s4)cc3F)ncnc2cc1OCCCN1CCN(C)CC1`: the residual activity in [1] was found to be 108%; in assay [2], 57%; in assay [3], 95%; in assay [4], 39%; in assay [5] it was 125%; in assay [7] it was 107%. The residual activity in assay [8] was 73%; in assay [9], 87%; in [10], 83%; in assay [11] it was 24%; in assay [12], 134%; in assay [13], 115%. For the same compound, in [14], the residual activity came out at 10%. The compound also had an IC50 in assay [6] of 420 nM.

Consider `COc1cc2c(Oc3ccc(-c4nc5ccccc5s4)cc3)ncnc2cc1OCCCN1CCN(C)CC1`, for which the residual activity in assay [1] was 112%; in assay [2], 53%; in [3], 93%; in [4], 43%; in assay [5], 105%; in assay [7], 99%. Besides, the residual activity in assay [8] came out at 105%; in assay [9], 74%; in assay [10] it was 120%; in assay [11], 61%; in assay [12] it was 143%; in assay [13], 100%. Moreover, the residual activity in [14] was determined as 34%. In addition, the IC50 in assay [6] was 147 nM.

Source of the values: ChEMBL document CHEMBL1152560, “Substituted 2-arylbenzothiazoles as kinase inhibitors: hit-to-lead optimization” (Bioorg Med Chem, 2009).
